# Values of other authors in article PMC3009454 (Bioconjugate chemistry, 2009).
# Tested on: primary melanoma and pulmonary melanoma metastases
# Conditions: small animal SPECT/CT
substance,measurement,value
"^111In-1,4,7,10-tetraazacyclododecane-1,4,7,10-tetraacetic acid-c[Lys-Nle-Glu-His-DPhe-Arg-Trp-Gly-Arg-Pro-Val-Asp] (sidechain bridge or staple) [^111In-DOTA-GlyGlu-CycMSH]",SPECT/CT visualization of primary melanoma and pulmonary melanoma metastases,clearly visualized
